Tests used:
[1] = Decomposition temperature by differential scanning calorimetry; format: physicochemical; conditions: DSC, onset of decrease in slope of temperature-heat flow curve; unit not given (scans in ° C.)
Experimental: A dual cell Perkin Elmer differential scanning calorimeter (PE DSC 7, Norwalk, Conn.) was used to determine the thermal transitions of the compounds. All scans were carried out from 30° C. to 200° C. at a heating and cooling rate of 10° C./minute and 40° C./min, respectively, except for 1-(3-methoxybenzyl)-3-(1-propenyl) thiourea, for which the scans were carried out from 0° C. to 200° C. at a heating rate of 10° C./min, and 1-(3-methoxybenzyl)-3-octadecyl thiourea, for which both the heating and cooling rates were 10° C./min. 1,3-di(3-methoxybenzyl) thiourea and 1-(3-methoxybenzyl)-3-dodecyl thiourea were heated to 300° C., and 1-(3-methoxybenzyl)-3-(4-methoxybenzoyl) thiourea was heated to 250° C. to determine the decomposition temperature. The decomposition temperature was taken as the onset of a decrease in the slope of the temperature-heat flow DSC curve. The first heating curve was recorded in all cases, and liquid nitrogen was used to quench the samples after the first heating.

[2] = OSI test of soybean oil mixed with additive; conditions: 1.0% additive, 130° C.
Source text: (§1) A presently preferred method of determining oxidative stability of lipids and oils employs the Oxidative Stability Index (OSI), which determines the oxidative stability of an oil by passing air through a sample under stringent temperature control. (Firestone, Oxidative Stability Index (OSI): Official Methods of Recommended Practices of the American Oil Chemists' Society (AOCS), 4th Ed. American Oil Chemists Society, Champaign, Ill., AOCS Official Method Cd 12b-92, 1993.) In this method, a stream of air is passed through the oil sample, which aids in the rapid degradation of the triglyceride into volatile organic acids. The air stream flushes the volatile acids from the oil into a conductivity cell containing water where the acids are solubilized. These acids, once dissolved in the water solution, disassociate into ions, thus changing the conductivity of the water. Therefore, a continuous measure of the conductivity of the cell by computer will indicate when a rapid rise in the conductivity occurs that corresponds to the induction point, oxidative failure of the sample. […]
(§2) Unless otherwise stated, Oxidative Stability Index (OSI) values were determined on 5.00 ±0.05 g lipid or oil samples in triplicate according to AOCS Official Method Cd 12b-92 (AOCS, 1993) at 90° C., 110° C. and/or 130° C. on an oxidative stability instrument manufactured by Omnion (Rockland, Mass.). […]

[3] = Oxidative Stability by Rotating Pressure Vessel (RBOT) of refined meadowfoam seed oil plus thiourea compounds
Source text: Another presently preferred method of determining oxidative stability of lipids and oils employs the Oxidative Stability by Rotating Pressure Vessel (RBOT) test. In this test, oxidative stability, determined according to the ASTM D2272-98 test method (ASTM, 2001, “Standard Test Method for Oxidation Stability of Steam Turbine Oils by Rotating Pressure Vessel,” in Book of Standards, Vol. 05.01., American Society for Testing and Materials, West Conshohocken, Pa.), measures the time for oxygen pressure to decrease in a closed stainless steel vessel containing a lipid or oil when heated with a copper coil catalyst. Oxygen taken up by the lipid or oil during the reaction is an indication of oil degradation.
In these experiments, Oxidative Stability by Rotating Pressure Vessel (RBOT) tests were performed with different 3-methoxybenzyl thiourea compounds synthesized in Example 3 that were mixed in different quantities with different mono- and polyunsaturated vegetable oils. Hexane was used to clean and store the copper coils, but all other aspects of the Oxidative Stability by Rotating Pressure Vessel (RBOT) test were the same as in the standard ASTM D2272–98 test method (ASTM, 2001, “Standard Test Method for Oxidation Stability of Steam Turbine Oils by Rotating Pressure Vessel,” in Book of Standards, Vol. 05.01., American Society for Testing and Materials, West Conshohocken, Pa.).

[4] = OSI test of high oleic sunflower oil mixed with additive; conditions: 1.0% additive, 130° C.
Source text: as §1, §2

[5] = Oxidative Stability Index (OSI) of refined meadowfoam seed oil plus additives; conditions: 130° C.; for increase in the OSI time: refined meadowfoam seed oil, versus oil with no additives
Source text: A presently preferred method of determining oxidative stability of lipids and oils employs the Oxidative Stability Index (OSI), which determines the oxidative stability of an oil by passing air through a sample under stringent temperature control. (Firestone, Oxidative Stability Index (OSI): Official Methods of Recommended Practices of the American Oil Chemists' Society (AOCS), 4th Ed. American Oil Chemists Society, Champaign, Ill., AOCS Official Method Cd 12b-92, 1993.) In this method, a stream of air is passed through the oil sample, which aids in the rapid degradation of the triglyceride into volatile organic acids. The air stream flushes the volatile acids from the oil into a conductivity cell containing water where the acids are solubilized. These acids, once dissolved in the water solution, disassociate into ions, thus changing the conductivity of the water. Therefore, a continuous measure of the conductivity of the cell by computer will indicate when a rapid rise in the conductivity occurs that corresponds to the induction point, oxidative failure of the sample. The time to the induction point is the OSI time. […] Saturated fatty acid methyl ester (FAME) standards commercially available from Alltech Associates (Deerfield, Ill.) may be used to calibrate the OSI determinations.
OSI determinations may be performed on an oxidative stability instrument manufactured by Omnion (Rockland, Mass.) using the AOCS method described in the above-disclosed Firestone reference. Lipid or oil samples may be run at 110° C. and FAMEs may be tested at 90° C., with air flow set at 35 kPa with a resulting velocity of about 140 ml/min. A presently preferred method for determining OSI values is described by T. A. Isbell et al., “Oxidative Stability Index of Vegetable Oils in Binary Mixtures with Meadowfoam Oil,” Industrial Crops and Products 9, 115–123 (1999).
Unless otherwise stated, Oxidative Stability Index (OSI) values were determined on 5.00 ±0.05 g lipid or oil samples in triplicate according to AOCS Official Method Cd 12b-92 (AOCS, 1993) at 90° C., 110° C. and/or 130° C. on an oxidative stability instrument manufactured by Omnion (Rockland, Mass.). Details of the procedure have been published by Isbell et al., “Oxidative Stability Index of Vegetable Oils in Binary Mixtures with Meadowfoam Oil,” Ind. Crops Prod. 9, 115–123 (1999). When compounds of the present invention were added to the lipid or oil sample being tested, the compounds (0.1% to 1.0% by weight) were added to the test lipid or oil (20 g) and dissolved or dispersed at room temperature before triplicate 5.00 g samples of lipid or oil with an added compound of the invention were weighed into the OSI test tube.
The 1,3-di(3-methoxybenzyl) thiourea prepared in Example 3 was mixed at 0.1%, 0.5% or 1.0% with refined meadowfoam seed oil (Lot #CW-4551, The Fanning Corp) and the oxidative stability of the mixtures was compared to that of refined meadowfoam seed oil at 130° C. The OSI times were 49.8 h, 159 h and 172 h, respectively, for the mixtures containing the thiourea compared to an OSI time of 14.9 h for this lot of refined meadowfoam seed oil with no additives at 130° C.
Thus, 1,3-bis(2-methoxyphenyl)-2-thiourea (Aldrich Chem Co.) added at 0. […] Likewise, 1,3-bis(3-methoxyphenyl)-2-thiourea at 0. 1% added to refined meadowfoam oil gave an OSI time of 27.0 h, an […] lower value than for the 1,3-di-(3-methoxybenzyl) thiourea produced in Example 3.

Decomposition Temperature [1]: 265 °C
Oxidative Stability (RBOT) ([3]; Refined Meadowfoam Seed Oil plus 0.05% compound): 33 min
Oxidative Stability (RBOT) ([3]; Refined Meadowfoam Seed Oil plus 0.1% compound): 40 min
Oxidative Stability (RBOT) ([3]; Refined Meadowfoam Seed Oil plus 0.2% compound): 41 min
Oxidative Stability (RBOT) ([3]; Refined Meadowfoam Seed Oil plus 1.0% compound): 41 min
Oxidative stability in the RBOT test, in words ([3]; addition of 0.1% compound): doubled
SMILES: COc1cccc(CNC(=S)NCc2cccc(OC)c2)c1 [1,3-di(3-methoxybenzyl) thiourea]
OSI Time [2]: 6.4 h
improvement of OSI time compared to soybean oil alone [2]: 831%
OSI Time [4]: 157 h
improvement of OSI time compared to sunflower oil alone [4]: 1720%
OSI Time ([5]; refined meadowfoam seed oil Lot #CW-4551, 0.1% additive): 49.8 h
OSI Time ([5]; refined meadowfoam seed oil Lot #CW-4551, 0.5% additive): 159 h
OSI Time ([5]; refined meadowfoam seed oil Lot #CW-4551, 1.0% additive): 172 h
OSI Time ([5]; refined meadowfoam seed oil plus additive 0.1%): 49.8 h
OSI Time ([5]; refined meadowfoam seed oil plus additive 0.5%): 159 h
OSI Time ([5]; refined meadowfoam seed oil plus additive 1.0%): 172 h
increase in the OSI time ([5]; 0.1% additive): 234%
increase in the OSI time ([5]; 0.5% additive): 967%
increase in the OSI time ([5]; 1.0% additive): 1054%

Reference: US7169815B2, “3-methoxybenzyl thiourea derivatives and improved lipid compositions containing same” (The United States of America as represented by the …, priority 2000, dated 2007)
